# US7608589B2, “Peptidyl diacylglycerides” (priority 2005, dated 2009)
# System: immunoglobulin titers (IgG and IgM) specific for M. tuberculosis
# Set-up: species or system rabbits
# Details: rabbit, in vivo, sc
sequence,measurement,value
"FNNFTVSFWLRVPKVSASHLE [FNN-21, reference compound]","immunoglobulin titer, average absorbance, Day 1",0.14 AU 405 nm
same,"immunoglobulin titer, average absorbance, Day 3",0.15 AU 405 nm
same,"immunoglobulin titer, average absorbance, Day 5",0.13 AU 405 nm
same,"immunoglobulin titer, average absorbance, Day 7",0.16 AU 405 nm
same,"immunoglobulin titer, average absorbance, Day 10",0.25 AU 405 nm
same,"immunoglobulin titer, average absorbance, Day 14",0.35 AU 405 nm
